Experimental data published in paper PMC12495443, “Developing inhibitors of the guanosine triphosphate hydrolysis accelerating activity of Regulator of G protein Signaling-14 [drawing 1]” (The Journal of Biological Chemistry, 2025).
Positions count from the first letter of the chain named. Entries after “also recorded” stand apart in the source; their conditions may differ.

Experiments:
[1] = biological target: T1, cysteine-less RGS12 RGS-box protein (Homo sapiens, UniProt O14924, C701S/C748S/C775S/C831S); assay: Transcreener GDP RGScreen assay with cysteine-less RGS12 RGS-box; format: biochemical; details: range given jointly for cysteine-less RGS14 and RGS12 proteins; read-out: estimated IC50, cysteine-less RGS12 RGS-box
T1 construct: human RGS12 RGS-box (aa 695–843 of UniProt O14924); host or cells: E. coli
T1 sequence (O14924 695-843 C701S/C748S/C775S/C831S): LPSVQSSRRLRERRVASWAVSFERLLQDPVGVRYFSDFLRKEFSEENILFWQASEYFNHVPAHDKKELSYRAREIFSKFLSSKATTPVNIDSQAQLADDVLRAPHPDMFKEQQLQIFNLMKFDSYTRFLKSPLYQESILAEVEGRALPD
From the text: (§1) Given the earlier experience with screening hit CCG-4986 being a covalent modifier of RGS4 cysteine residues ([35]), we sought to exclude protein-thiol reactivity as a potential mechanism of action of the active compounds derived from the AtomNet virtual screening effort ([55]) and SAR campaign follow-ups. To address this possibility and screen out thiol-reactive hits, cysteine-lacking versions of recombinant proteins spanning the RGS-boxes of RGS14 and RGS12 were purified from E. coli cultures.
Reagents and protocols for the fluorescence anisotropy-based Transcreener GDP RGScreen assay using a rate-altered, double point-mutant, recombinant Gαi1 protein have been extensively described previously ([43], [44]); reactions were always performed so that total GTP converted over the time course was consistently less than 10% of reaction maximum input. […] Open-reading frames (ORFs) encoding wild-type versions of the human RGS14 RGS-box (aa 46–195 of UniProt O43566) and human RGS12 RGS-box (aa 695–843 of UniProt O14924) were each sub-cloned in-frame with an N-terminal hexahistidine (His6) expression tag in the plasmid pET30a, expressed in E. coli cultures, and then purified by nickel-nitriloacetate (Ni-NTA) and size-exclusion (Superdex 200) column chromatographies by GenScript using previously described methods ([35]). […]

[2] = biological target: T2, human RGS14 RGS-box (wild-type) (Homo sapiens, UniProt O43566); parameters: method as in earlier work; details: Transcreener GDP RGScreen; ref (8); cited from earlier work
T2 construct: human RGS14 RGS-box (aa 46–195 of UniProt O43566); host or cells: E. coli
T2 sequence (O43566 46-195): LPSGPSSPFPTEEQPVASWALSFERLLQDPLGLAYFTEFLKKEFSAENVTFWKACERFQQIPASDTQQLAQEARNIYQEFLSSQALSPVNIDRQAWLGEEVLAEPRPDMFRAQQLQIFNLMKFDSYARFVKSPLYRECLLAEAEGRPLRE

[3] = biological target: T2, human RGS14 RGS-box (wild-type); assay: Transcreener GDP RGScreen fluorescence polarization assay of RGS14 RGS-box GAP activity on Gαi1(DM); format: biochemical; details: for IC50: wild-type RGS14 RGS-box GAP activity, Gαi1(DM), Transcreener GDP RGScreen, read-out: RGS14 pIC50 (converted)
In short: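 Steady-state GTP hydrolysis by rate-altered double point-mutant Gαi1 was read by Transcreener GDP fluorescence polarization, with GTP conversion kept below 10% of maximum input. The E. coli-expressed, N-terminal His6-tagged wild-type RGS-boxes were RGS12 aa 695–843 and RGS14 aa 46–195.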

[4] = biological target: T3, human RGS12 RGS-box (wild-type) (Homo sapiens, UniProt O14924); parameters: method as in earlier work; details: Transcreener GDP RGScreen; ref (8); cited from earlier work
T3 construct: human RGS12 RGS-box (aa 695–843 of UniProt O14924); host or cells: E. coli
T3 sequence (O14924 695-843): T1 sequence (O14924 695-843 C701S/C748S/C775S/C831S) with S7C, S54C, S81C, S137C

[5] = biological target: T4, cysteine-less RGS14 RGS-box protein (Homo sapiens, UniProt O43566, C100S/C183S); assay: Transcreener GDP RGScreen assay with cysteine-less RGS14 RGS-box; format: biochemical; details: range given jointly for cysteine-less RGS14 and RGS12 proteins; read-out: estimated IC50, cysteine-less RGS14 RGS-box
T4 construct: human RGS14 RGS-box (aa 46–195 of UniProt O43566); host or cells: E. coli
T4 sequence (O43566 46-195 C100S/C183S): T2 sequence (O43566 46-195) with C55S, C138S
From the text: as §1
Reagents and protocols for the fluorescence anisotropy-based Transcreener GDP RGScreen assay using a rate-altered, double point-mutant, recombinant Gαi1 protein have been extensively described previously ([43], [44]); reactions were always performed so that total GTP converted over the time course was consistently less than 10% of reaction maximum input. Specific methods for its application in assessing RGS14 and RGS12 GAP activity are summarized as follows. Open-reading frames (ORFs) encoding wild-type versions of the human RGS14 RGS-box (aa 46–195 of UniProt O43566) and human RGS12 RGS-box (aa 695–843 of UniProt O14924) were each sub-cloned in-frame with an N-terminal hexahistidine (His6) expression tag in the plasmid pET30a, expressed in E. coli cultures, and then purified by nickel-nitriloacetate (Ni-NTA) and size-exclusion (Superdex 200) column chromatographies by GenScript using previously described methods ([35]). […]
Supplementary Figure S5. […] (A,B) Recombinant, cysteine residue-lacking (“-cys”) RGS14 RGS-box protein (panel A) and cysteine residue-lacking RGS12 RGS-box protein ([…]) were both observed, in a concentration-dependent fashion (indicated in ng/µL by color), to increase steady-state GDP production by 0.5 ng/µL Gai1(DM) protein in a 20 µL final reaction volume, as measured by the Transcreener® GDP-detection RGScreen™ assay and detected by the change in polarization (ΔmP) at each indicated time point (“enz” = Gai1(DM) protein a.k.a. […]

THP-1 cell line = assay: Cytotoxicity assays (CytoTox-Glo, CytoTox 96); format: cell-based; details: THP-1 cells, overnight, CytoTox-Glo and CytoTox 96
Procedure: To evaluate cellular toxicity of active compounds, we employed the immortalized human monocytic THP1-Dual cell line (InvivoGen) in two orthogonal cytotoxicity assays: ATP-dependent luminescence (CytoTox-Glo) and colorimetric lactate dehydrogenase (LDH) release (CytoTox 96). For each assay, compounds were serially diluted 2-fold starting at 250 μM and added to 96-well flat-bottom tissue culture plates (Thermo Scientific Nunc, Cat# 165306). THP1-Dual cells were then seeded at 20,000 to 30,000 cells per well in 100 μl RPMI 1640 media supplemented with 10% fetal bovine serum (Gibco). Plates were gently mixed and incubated overnight at 37 °C in a humidified 5% CO2 incubator. For the CytoTox-Glo assay (Promega, Cat# G9291), 50 μl of assay reagent was added to each well. Plates were mixed briefly, sealed, and incubated at room temperature for 15 min before reading luminescence on a TECAN Infinite M1000 Pro plate reader to quantify dead-cell signal. Subsequently, 50 μl of a digitonin-containing lysis solution was added to each well, followed by a second luminescence read after 15 min to assess total cell content. Percent cytotoxicity was calculated per manufacturer instructions. For the CytoTox 96 Non-Radioactive Cytotoxicity Assay (Promega, Cat# G1780), after overnight compound treatment, LDH release into the culture medium was measured by adding the provided substrate mix. Absorbance was read at 490 or 492 nm within 1 h of adding the stop solution. Assay optimization and data normalization were conducted according to the manufacturer’s technical manual.

[6] = biological target: T3, human RGS12 RGS-box (wild-type); assay: Transcreener GDP RGScreen fluorescence polarization assay of RGS12 RGS-box GAP activity on Gαi1(DM); format: biochemical; details: wild-type RGS12 RGS-box GAP activity, Gαi1(DM), read-out: RGS12 pIC50 (converted)
From the text: We previously described work with BellBrook Labs creating the Transcreener GDP RGScreen fluorescence polarization assay of steady-state GTP hydrolysis, leveraging a double point-mutant in the Gα enzyme to make GTP hydrolysis, rather than GDP (product) release, the rate-limiting step for multiple rounds of GTP conversion ([57], [59]). […] Titrating inputs of the double point-mutant (“DM”) Gαi1 and RGS-box recombinant proteins (Fig. S2, B and C) established a robust, medium-throughput assay for evaluating potential RGS14 and RGS12 inhibitors, with “assay quality” Z′ scores ([60]) above 0.76 for each target (Fig. S2D).
Reagents and protocols for the fluorescence anisotropy-based Transcreener GDP RGScreen assay using a rate-altered, double point-mutant, recombinant Gαi1 protein have been extensively described previously ([43], [44]); reactions were always performed so that total GTP converted over the time course was consistently less than 10% of reaction maximum input. Specific methods for its application in assessing RGS14 and RGS12 GAP activity are summarized as follows. Open-reading frames (ORFs) encoding wild-type versions of the human RGS14 RGS-box (aa 46–195 of UniProt O43566) and human RGS12 RGS-box (aa 695–843 of UniProt O14924) were each sub-cloned in-frame with an N-terminal hexahistidine (His6) expression tag in the plasmid pET30a, expressed in E. coli cultures, and then purified by nickel-nitriloacetate (Ni-NTA) and size-exclusion (Superdex 200) column chromatographies by GenScript using previously described methods ([35]). These recombinant His6-tag fusion proteins were stored at −80 °C in storage buffer (150 mM NaCl, 50 mM Tris-HCl pH 8.0, 10% glycerol) before thawing and use. Cysteine-less versions were similarly produced by ORF site-directed mutagenesis: for RGS14, codons for cysteine residues 47 and 130 (numbered as in PDB id 2JNU) were replaced with serine codons; for RGS12, codons for cysteines 4, 51, 78, and 134 (numbered in relation to PDB id 2EBZ) were replaced with serine codons. Use of Transcreener GDP-detection reagents to assess compound inhibition of Naegleria fowleri Gα7 protein GTPase activity ([83]) has previously been described ([84]).

[7] = biological target: T5, RGS14 RGS-box (GAP activity on wild-type Gαi1) (Homo sapiens, UniProt O43566); assay: Single-turnover [γ-33P]GTP hydrolysis assay of RGS-box GAP activity; format: biochemical; details: wild-type Gαi1, concentration-dependent
T5 sequence (O43566 67-184 limits assumed): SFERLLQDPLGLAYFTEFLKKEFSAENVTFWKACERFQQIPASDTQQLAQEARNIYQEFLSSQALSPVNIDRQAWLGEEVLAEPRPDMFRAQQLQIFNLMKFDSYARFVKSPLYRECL
From the text: To further evaluate the functional activity of these triazolothiadiazine derivatives, and especially to eliminate concerns of misascribing GAP-inhibitory activity to potential assay interference, we tested two representative compounds—Z55660043 and Z55627844—in the gold-standard single-turnover radioactive GTP hydrolysis assay ([7], [58]) (Fig. 6).
The single-turnover radiolabeled-GTP hydrolysis assay is the gold standard assay for RGS-box GAP activity, first described using [γ -^32P]GTP by Berman et al. ([7]) and recently modified for modern performance ([91], [92], [93], [94]) to use readily available [γ-^33P]GTP substrate and perchloric acid quenching. The assay was performed by first pre-loading wild-type (WT) Gα protein (i.e., 750 nM purified, recombinant, wild-type-sequence human Gαi1 protein) with a slight excess (1 μM) of [γ-^33P]GTP for 15 min at 30 °C. Assay initiation involved adding purified recombinant RGS protein previously pre-incubated for 30 min at 30 °C with a candidate inhibitor. […] Supernatant aliquots were then added to liquid scintillation fluid and [^33P]-Pi content (i.e., hydrolyzed GTP) was quantified with a scintillation counter with an appropriate β-transmission window.

Row | SMILES | IC50 [1] [µM] | estimated pIC50RGS14 [2] | IC50 [3] [µM] | estimated pIC50 RGS12 [4] | IC50 [5] [µM] | cytotoxicity (THP-1 cell line) | Ratio (RGS14 pIC50 / RGS12 pIC50) ([3]; values > 1.0 reflect RGS14 selectivity) | IC50 [6] [µM] | inhibition of RGS14 RGS-box-mediated acceleration of [γ-33P]GTP hydrolysis [7]
1 | COc1ccc2[nH]c(SC(C)C(=O)c3c(F)cc(F)cc3F)nc2c1 (stereo not shown) [Z1098346112, 2-[(5-methoxy-1H-1,3-benzodiazol-2-yl)sulfanyl]-1-(2,4,6-trifluorophenyl)propan-1-one] | 26 to 64 | 4.2 | 63.1 | 4.4 | 26 to 64 |  |  |  | 
2 | COc1ccc(OCc2nnc3n2N=C(c2cc4ccccc4o2)CS3)cc1 [Z55627844] |  |  | 3.63 |  |  | without measurable cytotoxicity; also recorded: no overt cytotoxicity | 1.17 | 21.9 | inhibit RGS14 RGS-box-mediated acceleration
